Experiment: solubility in water
Type: physicochemical
Details: pH 7.4, aqueous buffer
Description: Examples of such active ingredients are, for example, Biopharmaceutics Classification System (BCS) Class IV drug substances that are characterized by low solubility and low permeability (see “Waiver of in vivo bioavailability and bioequivalence studies for immediate-release solid oral dosage forms based on a biopharmaceutics classification system”, U.S. Department of Health and Human Services, Food and Drug Administration, Center for Drug Evaluation and Research (CDER), August 2000). It will be recognized that aqueous solubility of many compounds is pH-dependent; in the case of such compounds the solubility of interest herein is at a physiologically relevant pH, for example a pH of about 1 to about 8.

SMILES: Nc1ncc(-c2cnn(CCO)c2)c2scc(-c3ccc(NC(=O)Nc4cccc(F)c4)cc3)c12 [N-(4-{4-amino-7-[1-(2-hydroxyethyl)-1H-pyrazol-4-yl]thieno[3,2-c]pyridin-3-yl}phenyl)-N′-(3-fluorophenyl)urea]
- solubility: < 0.03 µg/mL

— patent US8557995B2, “Solid dispersions containing kinase inhibitors” (AbbVie Inc., priority 2010, dated 2013)
